Measurements taken from patent US20040053323A1, “Method of screening inducible nitric oxide synthase activation inhibitor” (priority 2000, published 2004).
One block for each molecule: values may come before it.

Assays:
Δ122-iNOSox = molecular target: T1, Δ122-iNOSox (Homo sapiens, UniProt P35228); test: Binding assay of ^3H-compound A with Δ122-iNOSox (gel filtration mini column, scintillation counting); conditions: Δ122-iNOSox protein
T1 construct: genes of the oxygenase domain region (amino acids 1 to 526) by PCR; His tag; made in house; host or cells: E. coli, protease-deficient DE3 strain; vector pTrcHis2 (Invitrogen)
T1 sequence (P35228 123-526 limits assumed, stated change not applied): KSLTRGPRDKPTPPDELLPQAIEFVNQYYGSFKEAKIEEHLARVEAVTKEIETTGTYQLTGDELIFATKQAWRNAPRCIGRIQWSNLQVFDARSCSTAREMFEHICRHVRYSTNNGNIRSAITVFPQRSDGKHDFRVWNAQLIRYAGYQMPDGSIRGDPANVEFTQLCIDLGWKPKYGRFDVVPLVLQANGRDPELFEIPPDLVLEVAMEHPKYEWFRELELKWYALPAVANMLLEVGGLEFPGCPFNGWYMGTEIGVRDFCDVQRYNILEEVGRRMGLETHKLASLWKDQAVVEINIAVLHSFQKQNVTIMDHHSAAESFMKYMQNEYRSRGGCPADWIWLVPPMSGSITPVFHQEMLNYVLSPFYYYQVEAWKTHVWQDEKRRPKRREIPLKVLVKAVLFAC
Description: A binding assay system for ^3H-compound A (25Ci/mmol) was constructed using Δ122-iNOSox obtained in Example 9. In principle, it is an assay system in which the binding strength of a compound towards iNOS can be analyzed by measuring the amount of ^3H-compound A replaced by various test drugs added to bound Δ122-iNOSox protein and ^3H-compound A (10 nM) . That is, to 100 μL of a Δ122-iNOSox solution that has been diluted to a final concentration of 1 μg/mL with 25 mM Tris-HCl (pH 7.5) containing 150 mM NaCl and 1% CHAPS, 1 μL of 1 μM ^3H-compound A was added and was incubated for 3 hours at 4° C., then the entire amount was applied to a gel filtration mini column for desalting (NICK column; Pharmacia) that was pre-equilibrated with 25 mM Tris-HCl (pH 7.5) containing 150 mM NaCl. Next, 400 μL of the same buffer was added, the eluted solution was mixed with 7 mL of aquasol, and this was measured with a liquid scintillation counter.

[1] = molecular target: T2, ^14C-A-bound protein in RAW cells (Mus musculus, UniProt P29477); test: Dose dependency of ^14C-A binding activity in LPS/IFN-stimulated RAW264.7 cell extract; format: cell-based; conditions: RAW264.7 cells, LPS/IFN stimulation
T2 construct: endogenous in cells; host or cells: RAW264.7 mouse macrophage cells stimulated with LPS and IFN-γ
T2 sequence (P29477 1-1144): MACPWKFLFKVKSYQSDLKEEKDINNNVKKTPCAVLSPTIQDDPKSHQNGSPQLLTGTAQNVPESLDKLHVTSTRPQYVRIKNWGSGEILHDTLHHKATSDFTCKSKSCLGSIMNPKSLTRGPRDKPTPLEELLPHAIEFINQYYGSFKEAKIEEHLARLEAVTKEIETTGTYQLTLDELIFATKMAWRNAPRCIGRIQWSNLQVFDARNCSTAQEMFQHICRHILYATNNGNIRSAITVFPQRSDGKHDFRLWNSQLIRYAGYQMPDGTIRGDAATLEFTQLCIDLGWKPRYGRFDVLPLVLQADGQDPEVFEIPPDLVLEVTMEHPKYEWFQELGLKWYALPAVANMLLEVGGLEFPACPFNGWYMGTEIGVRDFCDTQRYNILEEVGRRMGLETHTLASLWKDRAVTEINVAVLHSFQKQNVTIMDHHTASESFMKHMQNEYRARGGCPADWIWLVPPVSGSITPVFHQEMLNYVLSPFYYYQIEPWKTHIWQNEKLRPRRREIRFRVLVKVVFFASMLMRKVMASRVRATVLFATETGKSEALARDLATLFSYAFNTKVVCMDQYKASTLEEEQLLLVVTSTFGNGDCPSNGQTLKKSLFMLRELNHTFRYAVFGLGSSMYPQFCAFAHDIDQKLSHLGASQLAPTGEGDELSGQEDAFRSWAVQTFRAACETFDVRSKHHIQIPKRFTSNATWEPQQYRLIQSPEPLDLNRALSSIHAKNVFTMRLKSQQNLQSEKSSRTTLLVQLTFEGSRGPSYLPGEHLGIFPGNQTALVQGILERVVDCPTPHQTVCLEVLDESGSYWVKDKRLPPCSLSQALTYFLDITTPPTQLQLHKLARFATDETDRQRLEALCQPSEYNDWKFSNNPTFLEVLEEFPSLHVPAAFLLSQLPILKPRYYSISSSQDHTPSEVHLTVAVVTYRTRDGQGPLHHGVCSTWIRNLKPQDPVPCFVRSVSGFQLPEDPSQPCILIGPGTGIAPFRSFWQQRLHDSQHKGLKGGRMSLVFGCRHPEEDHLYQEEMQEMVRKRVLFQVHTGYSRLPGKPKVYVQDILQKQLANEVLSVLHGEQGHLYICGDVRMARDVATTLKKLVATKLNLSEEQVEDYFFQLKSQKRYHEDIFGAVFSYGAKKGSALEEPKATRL
Description: (§1) Mouse macrophage derived RAW264.7 cells (Stuehr D. J. Proc. Natl. Acad. Sci. USA. 1991, 88, 7773; Cancer Res. 1987, 47, 5590) were cultured in Dulbecco's Modified Eagle Medium containing 10% FCS (fetal calf serum) , until there were 2 to 4×10^7 cells in each F75 culture flask (Falcon). Then, lipopolysaccharide (LPS) and interferon-γ (IFN) were added to a final concentration of 4 μg/ml and 16 units/ml, respectively, and cultured overnight in a CO2 incubator (37° C.). 0.1% Trypsin (5 mL) was added to the flask in which the cells were cultured, the cells were detached by an incubation at 37° C. for 5 minutes, and then collected by centrifugation. To the collected cells (2,000 rpm, 10 minutes), 600 μL of lysis buffer was added, and freeze thawing was repeated three times to disrupt the cells. The supernatant obtained by centrifugation (15,000 rpm, 15 minutes) was collected and this was the cell extract. […]
(§2) Then, 200 μL of that extract was applied to Superdex 200 HR10/30 (flow rate 0.5 mL/min: Amersham Pharmacia Biotech, Sweden) pre-equilibrated with 25 mM Tris-HCl (pH 8.0) containing 150 mM NaCl to perform gel filtration chromatography. Each of the fractions collected every minute were mixed with 7 mL of Aquasol-2 (Packard, USA), and was then measured with a liquid scintillation counter (FIG. 1). ^14C-A used in this experiment was synthesized as follows.

iNOS [2] = molecular target: T3, iNOS (Mus musculus, UniProt P29477); test: iNOS dimer/monomer detection by gel filtration and anti-iNOS dot blotting of LPS/IFN-stimulated RAW264.7 cell extract; format: cell-based; set-up: endogenous in cells; host or cells: RAW264.7 mouse macrophage cells stimulated with LPS and IFN-γ; conditions: RAW264.7 cells, LPS/IFN stimulation, compound A added
T3 sequence (P29477 1-1144): T2 sequence (P29477 1-1144)
Description: as §1, with “centrifugation.” for “centrifugation. To the collected cells (2,000 rpm, 10 minutes), 600 μL of lysis buffer was added, and freeze thawing was repeated three times to disrupt the cells. The supernatant obtained by centrifugation (15,000 rpm, 15 minutes) was collected and this was the cell extract.”
as §2
Gel filtration fractions containing compound A binding activity, which were obtained by a method similar to that of Example 2 were analyzed by dot blotting. […]

iNOS [3] = molecular target: T3, iNOS; conditions: cited from earlier work
[4] = molecular target: the molecule itself; test: gel filtration (Superdex 200) of RAW264.7 cell extract with dot blot detection; homodimer peak

- Hill coefficient (Δ122-iNOSox; Hill plot analysis): 0.971
- Kd (Δ122-iNOSox; ^3H-compound A, saturation curve and Scatchard plot): 13.5 nM
Molecule: CN(Cc1cccnc1)C(=O)[C@H](Cc1ccccc1)NC(=O)[C@H](Cc1ccccn1)NC(=O)c1cc2ccccc2o1 [compound A]
- radioactivity of cell extract versus added ^14C-A concentration (saturation) [1]: saturation of radioactivity was confirmed between 10^−6 M and 10^−5 M
- iNOS dimerization (dimer peak in dot blotting of gel filtration fractions) (iNOS [2]): the peak corresponding to the dimer had clearly disappeared

Molecule: Clc1ccccc1C(c1ccccc1)(c1ccccc1)n1ccnc1 [clotrimazole]
- effect on iNOS enzyme activity and dimerization (iNOS [3]): interfered not only with enzyme activity of iNOS but also with its dimerization

Molecule: Clc1ccc(COC(Cn2ccnc2)c2ccc(Cl)cc2Cl)c(Cl)c1 (stereo not shown) [miconazole]
- effect on iNOS enzyme activity and dimerization (iNOS [3]): interfered not only with enzyme activity of iNOS but also with its dimerization

B1: iNOS derived from mice (inducible nitrogen oxide synthase from LPS/IFN-stimulated RAW264.7 cells) (enzyme, mouse, UniProt P29477 1-1144, looked up)
chain: T2 sequence (P29477 1-1144)
notes: Endogenous protein in cell extract and gel filtration fractions; It ran as monomer and dimer peaks without compound A and as monomer only with compound A; also called iNOS protein
- binding result [4]: binds
